We go through 1 compound from US6191135A, “Neurokinin antagonists” (Boehringer Ingelheim KG, priority 1994, dated 2001).

Molecules are shown by their SMILES.

What is called Ki is a measure of affinity in units of concentration, obtained from inhibition or displacement.

This test addresses T1, NK1 -receptor (substance P-receptor) (Homo sapiens, UniProt P25103).
T1 construct: intact human lymphoblastoma cells (IM-9) which express NK1 -receptors; endogenous in cells; host or cells: IM-9 human lymphoblastoma cells
Briefly: NK1-receptor affinity: displacement of 125I labelled substance P on intact human lymphoblastoma cells (IM-9). The test is classed as binding. Particulars: intact human lymphoblastoma cells (IM-9) expressing NK1-receptors, read-out: Ki. The procedure:
The receptor affinity for the NK1 -receptor (substance P-receptor) was determined on intact human lymphoblastoma cells (IM-9) which express NK1 -receptors, and the displacement of ^125 I labelled substance P was measured.
(In general: Displacement assays read how much labelled ligand stays bound in the presence of the test substance.)

T1 sequence (P25103 whole entry): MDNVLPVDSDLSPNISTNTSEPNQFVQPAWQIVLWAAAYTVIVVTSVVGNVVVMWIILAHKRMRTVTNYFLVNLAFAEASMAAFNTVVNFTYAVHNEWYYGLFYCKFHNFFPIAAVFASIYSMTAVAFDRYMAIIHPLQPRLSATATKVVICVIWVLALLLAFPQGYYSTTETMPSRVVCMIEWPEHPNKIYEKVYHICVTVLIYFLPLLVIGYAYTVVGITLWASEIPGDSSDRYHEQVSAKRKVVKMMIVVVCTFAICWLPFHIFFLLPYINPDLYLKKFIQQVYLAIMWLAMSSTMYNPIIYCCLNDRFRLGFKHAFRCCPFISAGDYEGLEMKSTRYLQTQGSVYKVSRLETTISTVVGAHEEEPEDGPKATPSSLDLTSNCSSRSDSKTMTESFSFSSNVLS

On to `COc1ccccc1C(CNC(=O)Nc1cc(C(F)(F)F)cc(C(F)(F)F)c1)N1CCC(N2CCCCC2)CC1` (stereo not shown) [Example 177, N-3,5-Bistrifluoromethylphenyl-N'-[2-(2-methoxyphenyl)-2-(4-piperidin-1-yl)-piperidin-1-yl-ethyl]-urea], for which the Ki was 10 nM.
